The results in this text go back to US20210161131A1, “cis-p-Menthane-1,8-Di-secondary Amine Compounds as well as Their Preparation Methods and Application in Weed Control” (RESEARCH INSTITUTE OF FORESTRY NEW TECHNOLOGY, CHINESE …, priority 2019, published 2021).

The test relates to barnyard grass seeds. Put plainly: Petri dish seed germination method: inhibition of root and stem growth of barnyard grass. The format is in vivo. The note with it: 96 hours incubation. As for the experimental part: (§1) Step 2: Accurately weigh 1 mmol cis-p-menthane-1,8-di-Schiff base compounds and cis-p-menthane-1,8-di-secondary amine compounds respectively, dissolve each of them with 0.25 mL DMF, and add a drop of Tween 80 in each resulted solution. After being fully dissolved, each solution is transferred to a 100 mL volumetric flask respectively and then diluted to the mark with distilled water to obtain a solution with a concentration of 10 mmol/L as the mother liquor. The two-fold dilution method is used to prepare diluted solutions with a series of concentrations (the concentrations of DMF and Tween 80 in the diluted solutions are the same as those in the mother liquor).
(§2) Barnyard grass seeds are placed in a 28° C. incubator and are soaked in an appropriate amount of distilled water for 12 hours there. After the clean water is filtered out, the seeds are then placed in the 28° C. incubator for 24 hours to germinate. Spread 2 pieces of filter paper in each of several Petri dishes, and place 10 barnyard grass seeds with the same size in each dish. Repeat each treatment for three times The dishes are divided into two groups: test dishes and control dishes. Add into each test dish 10 mL of the sample solution with the corresponding concentration of the target compound, and add into each control dish the same amount of the mixture of water, DMF and Tween 80 as the blank control. Add 10 seeds to each of the dishes (both test dishes and control dishes), place them in an artificial climate incubator, and incubate them for 96 hours under a temperature of 28° C., an illumination of 5000 1×, a photoperiod of day:night=16:8 and a relative humidity of 70-80%. The experimental data is processed and analyzed with DPS software to calculate the inhibition rate (y) of cis-p-menthane-1,8-di-secondary amine compounds on the root growth or stem growth of barnyard grass seeds.
Wherein, y is the inhibition rate of root growth or stem growth (%), x0 is the root length or stem length of the control, and x1 is the root length or stem length of the sample.
as §1, with “Accurately” for “Step 2: Accurately”, “cis-p-menthane-1,8-bis-(4-chlorophenyl)Schiff” for “cis-p-menthane-1,8-di-Schiff”, “base” for “base compounds”, “cis-p-menthane-1,8-bis-(4-chlorobenzyl)amine” for “cis-p-menthane-1,8-di-secondary amine compounds”, “(5 mmol/L, 2.5 mmol/L, 1.25 mmol/L, 0.625 mmol/L, 0.3125 mmol/L and 0.1563 mmol/L; the” for “(the”
as §2, with “placed in a 30° C. incubator” for “placed in the 28° C. incubator”, “in each Petri dish,” for “in each of several Petri dishes,”, “each Petri dish, and place” for “several Petri dishes, and place”, “with the above corresponding concentration” for “with the corresponding concentration”, “with DPS software.” for “with DPS software to calculate the inhibition rate (y) of cis-p-menthane-1,8-di-secondary amine compounds on the root growth or stem growth of barnyard grass seeds.”

For the compound `CC(C)(N=Cc1ccc(Br)cc1)[C@H]1CC[C@@](C)(N=Cc2ccc(Br)cc2)CC1` [cis-p-menthane-1,8-bis-(4-bromobenzyl)Schiff base, reference compound], the “inhibition rate on the root growth of barnyard grass seeds” value (“inhibition rate on the root growth” below) by setting is: (0.3125 mmol/L) −3.2%; (0.625 mmol/L) 28.5%; (1.25 mmol/L) 46.8%; (2.5 mmol/L) 72.6%; (5 mmol/L) 69.4%. In addition, the “inhibition rate on the stem growth of barnyard grass seeds” value (“inhibition rate on the stem growth” for short) is reported as 6.5% (0.3125 mmol/L); 19.6% (0.625 mmol/L); 42.3% (1.25 mmol/L); 39.3% (2.5 mmol/L); 55.9% (5 mmol/L).

`CC(C)(NCc1ccc(Br)cc1)[C@H]1CC[C@@](C)(NCc2ccc(Br)cc2)CC1` [cis-p-menthane-1,8-bis-(4-bromobenzyl)amine]: the “inhibition rate on the root growth” value is listed as 30.7% (0.15625 mmol/L); 57.6% (0.3125 mmol/L); 83.4% (0.625 mmol/L); 89.6% (1.25 mmol/L); 97.4% (2.5 mmol/L); 100.0% (5 mmol/L). Besides, the “inhibition rate on the stem growth” value was found to be 25.2% (0.15625 mmol/L); 35.4% (0.3125 mmol/L); 51.7% (0.625 mmol/L); 58.5% (1.25 mmol/L); 88.2% (2.5 mmol/L); 92.3% (5 mmol/L).

As to `CC1(NCc2ccc(Cl)cc2)CCC(C(C)(C)NCc2ccc(Cl)cc2)CC1` (stereo not drawn) [cis-p-menthane-1,8-bis-(4-chlorobenzyl)amine], the “inhibition rate on the root growth” value by setting is: (0.15625 mmol/L) 31.4%; (0.3125 mmol/L) 57.1%; (0.625 mmol/L) 87.3%; (1.25 mmol/L) 90.8%; (2.5 mmol/L) 91.6%; (5 mmol/L) 96.7%. The “inhibition rate on the stem growth” value (0.15625 mmol/L) came out at 35.7%; the “inhibition rate on the stem growth” value (0.3125 mmol/L) is given as 41.6%; the “inhibition rate on the stem growth” value (0.625 mmol/L) is reported as 65.8%; the “inhibition rate on the stem growth” value (1.25 mmol/L) is 63.4%; the “inhibition rate on the stem growth” value (2.5 mmol/L) was determined as 68.0%; the “inhibition rate on the stem growth” value (5 mmol/L) amounted to 75.1%.

In the case of `CC(C)(N=Cc1ccc(Cl)cc1)[C@H]1CC[C@@](C)(N=Cc2ccc(Cl)cc2)CC1` [cis-p-menthane-1,8-bis-(4-chlorophenyl) Schiff base, reference compound], the “inhibition rate on the root growth” value is −5.0% (0.3125 mmol/L); 24.3% (0.625 mmol/L); 76.7% (1.25 mmol/L); 49.9% (2.5 mmol/L); 92.4% (5 mmol/L). The “inhibition rate on the stem growth” value reads like this: (0.3125 mmol/L) 1.4%; (0.625 mmol/L) 4.6%; (1.25 mmol/L) 23.9%; (2.5 mmol/L) 22.8%; (5 mmol/L) 20.9%.

As to `CN(C)c1ccc(C=NC(C)(C)[C@H]2CC[C@@](C)(N=Cc3ccc(N(C)C)cc3)CC2)cc1` [cis-p-menthane-1,8-bis-(4-dimethylaminobenzyl)Schiff base, reference compound], the “inhibition rate on the root growth” value stood at 9.7% (0.3125 mmol/L); 45.4% (0.625 mmol/L); 49.8% (1.25 mmol/L); 59.3% (2.5 mmol/L); 67.1% (5 mmol/L). Besides, the “inhibition rate on the stem growth” value runs as follows: (0.3125 mmol/L) −12.2%; (0.625 mmol/L) 9.5%; (1.25 mmol/L) 6.9%; (2.5 mmol/L) 1.9%; (5 mmol/L) 13.2%.

With `CN(C)c1ccc(CNC2(C)CCC(C(C)(C)NCc3ccc(N(C)C)cc3)CC2)cc1` (stereo not drawn) [cis-p-menthane-1,8-bis-(4-dimethylaminobenzyl)amine], the “inhibition rate on the root growth” value runs as follows: (0.15625 mmol/L) 14.4%; (0.3125 mmol/L) 31.0%; (0.625 mmol/L) 21.0%; (1.25 mmol/L) 48.1%; (2.5 mmol/L) 70.3%; (5 mmol/L) 89.3%. The “inhibition rate on the stem growth” value was 19.1% (0.15625 mmol/L); 19.6% (0.3125 mmol/L); 24.9% (0.625 mmol/L); 22.3% (1.25 mmol/L); 34.3% (2.5 mmol/L); 56.6% (5 mmol/L).

`CC1(N=Cc2ccc(F)cc2)CCC(C(C)(C)N=Cc2ccc(F)cc2)CC1` (stereo not drawn) [cis-p-menthane-1,8-bis-(4-fluorobenzyl)Schiff base, reference compound]: the “inhibition rate on the root growth” value (0.3125 mmol/L) turned out to be 15.7%; the “inhibition rate on the root growth” value (0.625 mmol/L) is listed as 72.8%; the “inhibition rate on the root growth” value (1.25 mmol/L) was 85.7%; the “inhibition rate on the root growth” value (2.5 mmol/L) is 82.9%; the “inhibition rate on the root growth” value (5 mmol/L) amounted to 79.7%. The “inhibition rate on the stem growth” value by setting is: (0.3125 mmol/L) −13.7%; (0.625 mmol/L) 2.7%; (1.25 mmol/L) 23.9%; (2.5 mmol/L) 20.1%; (5 mmol/L) 32.3%.

As to `CC1(NCc2ccc(F)cc2)CCC(C(C)(C)NCc2ccc(F)cc2)CC1` (stereo not drawn) [cis-p-menthane-1,8-bis-(4-fluorobenzyl)amine], the “inhibition rate on the root growth” value by setting is: (0.15625 mmol/L) 38.2%; (0.3125 mmol/L) 48.3%; (0.625 mmol/L) 78.6%; (1.25 mmol/L) 78.6%; (2.5 mmol/L) 98.6%; (5 mmol/L) 100.0%. Further, the “inhibition rate on the stem growth” value (0.15625 mmol/L) was 7.2%; the “inhibition rate on the stem growth” value (0.3125 mmol/L) is listed as 10.5%; the “inhibition rate on the stem growth” value (0.625 mmol/L) was 58.3%; the “inhibition rate on the stem growth” value (1.25 mmol/L) amounted to 75.1%; the “inhibition rate on the stem growth” value (2.5 mmol/L) worked out at 85.9%; the “inhibition rate on the stem growth” value (5 mmol/L) turned out to be 100.0%.
